Measurements published in US11684607B2, “Secnidazole for use in the treatment of bacterial vaginosis” (priority 2014, dated 2023).
Where two headings read alike, the source gives them in different places.

Experiment: Effect of a single 2 g dose of SYM-1219 on the plasma pharmacokinetics of EE2 and NET in healthy female subjects
Type: in vivo, human
Protocol: Methods: Fifty-four (54) healthy female subjects, ages 18-65, received EE2/NET alone and in combination, where SYM-1219+EE2/NET were co-administered on Day 1 (Group B1; N=27) or SYM-1219 on Day 1 and EE2/NET on Day 2 (Group B2; N=27). Serial blood samples were drawn to measure plasma concentrations of EE2/NET. […] Safety was evaluated by recording of adverse events, vital signs, ECGs and standard laboratory tests.

[1] = EE2/NET administered 1 day after SYM-1219
[2] = Group B1: Period 2 (EE2/NET followed by SYM-1219 2 grams on Day 1) vs Period 1 (EE2/NET alone)
[3] = Group B1 Period 1: EE2/NET alone
[4] = Group B1 Period 2: EE2/NET followed by SYM-1219 2 grams on Day 1
[5] = Group B2: Period 2 (SYM-1219 2 grams on Day 1, EE2/NET on Day 2) vs Period 1 (EE2/NET alone)
[6] = Group B2: SYM-1219 2 g on Day 1, EE2/NET on Day 2
[7] = Group B2 Period 1: EE2/NET alone
[8] = Group B2 Period 2: SYM-1219 2 grams on Day 1, EE2/NET on Day 2

C#C[C@]1(O)CC[C@H]2[C@@H]3CCC4=CC(=O)CC[C@@H]4[C@H]3CC[C@@]21C [NET, norethindrone]
NET Cmax, AUC0-t or AUC0-∞ increase [1]: 9-16%
NET upper value of the 90% CI for Cmax [1]: 131%
NET AUC0-t, Geometric LSMean % Ratio (100 * Test/Reference) [2]: 115.52%
NET AUC0-∞, Geometric LSMean % Ratio (100 * Test/Reference) [2]: 116.27%
NET Cmax, Geometric LSMean % Ratio (100 * Test/Reference) [2]: 113.18%
NET Cmax and AUC increase (Group B1: SYM-1219 2 g and EE2/NET co-administered on Day 1): 13%
NET λz, Mean [3]: 0.07709 h⁻¹
NET λz, Median [3]: 0.07966 h⁻¹
NET λz, Mean [4]: 0.07886 h⁻¹
NET λz, Median [4]: 0.07642 h⁻¹
NET AUC0-t, Geometric LSMean % Ratio (100 * Test/Reference) [5]: 110.78%
NET AUC0-∞, Geometric LSMean % Ratio (100 * Test/Reference) [5]: 108.75%
NET Cmax, Geometric LSMean % Ratio (100 * Test/Reference) [5]: 116.46%
NET Cmax increase [6]: 16%
change in NET AUC [6]: no change
NET λz, Mean [7]: 0.07369 h⁻¹
NET λz, Median [7]: 0.07458 h⁻¹
NET Cmax, Mean [8]: 10.6 ng/mL
NET λz, Mean [8]: 0.07685 h⁻¹
NET λz, Median [8]: 0.07539 h⁻¹
NET Cmax, AUC0-t or AUC0-∞ increase (SYM-1219 administered immediately after EE2/NET): 13-16%
AUC(0-t) (female, human, plasma, Group B1 Period 1: EE2/NET alone, read-out: NET AUC0-t, Geometric LSMeans): 42.2 ng·h/mL
AUC(0-t) (female, human, plasma, Group B1 Period 1: EE2/NET alone, read-out: NET AUC0-t, Mean): 49.4 ng·h/mL
AUC(0-t) (female, human, plasma, Group B1 Period 1: EE2/NET alone, read-out: NET AUC0-t, Median): 38.7 ng·h/mL
AUC(0-inf) (female, human, plasma, Group B1 Period 1: EE2/NET alone, read-out: NET AUC0-∞, Geometric LSMeans): 48.5 ng·h/mL
AUC(0-inf) (female, human, plasma, Group B1 Period 1: EE2/NET alone, read-out: NET AUC0-∞, Mean): 57.8 ng·h/mL
AUC(0-inf) (female, human, plasma, Group B1 Period 1: EE2/NET alone, read-out: NET AUC0-∞, Median): 45.3 ng·h/mL
Cmax (female, human, plasma, Group B1 Period 1: EE2/NET alone, read-out: NET Cmax, Geometric LSMeans): 8.09 ng/mL
Cmax (female, human, plasma, Group B1 Period 1: EE2/NET alone, read-out: NET Cmax, Mean): 9.18 ng/mL
Cmax (female, human, plasma, Group B1 Period 1: EE2/NET alone, read-out: NET Cmax, Median): 8 ng/mL
Tmax (female, human, plasma, Group B1 Period 1: EE2/NET alone, read-out: NET Tmax, Median): 1 h
half-life (female, human, plasma, Group B1 Period 1: EE2/NET alone, read-out: NET t1/2, Mean (converted)): 9.6 h
half-life (female, human, plasma, Group B1 Period 1: EE2/NET alone, read-out: NET t1/2, Median (converted)): 8.71 h
AUC(0-t) (female, human, plasma, Group B1 Period 2: EE2/NET followed by SYM-1219 2 grams on Day 1, read-out: NET AUC0-t, Geometric LSMeans): 48.7 ng·h/mL
AUC(0-t) (female, human, plasma, Group B1 Period 2: EE2/NET followed by SYM-1219 2 grams on Day 1, read-out: NET AUC0-t, Mean): 53.5 ng·h/mL
AUC(0-t) (female, human, plasma, Group B1 Period 2: EE2/NET followed by SYM-1219 2 grams on Day 1, read-out: NET AUC0-t, Median): 48.9 ng·h/mL
AUC(0-inf) (female, human, plasma, Group B1 Period 2: EE2/NET followed by SYM-1219 2 grams on Day 1, read-out: NET AUC0-∞, Geometric LSMeans): 56.4 ng·h/mL
AUC(0-inf) (female, human, plasma, Group B1 Period 2: EE2/NET followed by SYM-1219 2 grams on Day 1, read-out: NET AUC0-∞, Mean): 62.4 ng·h/mL
AUC(0-inf) (female, human, plasma, Group B1 Period 2: EE2/NET followed by SYM-1219 2 grams on Day 1, read-out: NET AUC0-∞, Median): 54.3 ng·h/mL
Cmax (female, human, plasma, Group B1 Period 2: EE2/NET followed by SYM-1219 2 grams on Day 1, read-out: NET Cmax, Geometric LSMeans): 9.16 ng/mL
Cmax (female, human, plasma, Group B1 Period 2: EE2/NET followed by SYM-1219 2 grams on Day 1, read-out: NET Cmax, Mean): 10.1 ng/mL
Cmax (female, human, plasma, Group B1 Period 2: EE2/NET followed by SYM-1219 2 grams on Day 1, read-out: NET Cmax, Median): 9.45 ng/mL
half-life (female, human, plasma, Group B1 Period 2: EE2/NET followed by SYM-1219 2 grams on Day 1, read-out: NET t1/2, Mean (converted)): 9.6 h
half-life (female, human, plasma, Group B1 Period 2: EE2/NET followed by SYM-1219 2 grams on Day 1, read-out: NET t1/2, Median (converted)): 9.12 h
AUC(0-t) (female, human, plasma, Group B2 Period 1: EE2/NET alone, read-out: NET AUC0-t, Geometric LSMeans): 46.9 ng·h/mL
AUC(0-t) (female, human, plasma, Group B2 Period 1: EE2/NET alone, read-out: NET AUC0-t, Mean): 61.4 ng·h/mL
AUC(0-t) (female, human, plasma, Group B2 Period 1: EE2/NET alone, read-out: NET AUC0-t, Median): 41.7 ng·h/mL
AUC(0-inf) (female, human, plasma, Group B2 Period 1: EE2/NET alone, read-out: NET AUC0-∞, Geometric LSMeans): 55.1 ng·h/mL
AUC(0-inf) (female, human, plasma, Group B2 Period 1: EE2/NET alone, read-out: NET AUC0-∞, Mean): 75 ng·h/mL
AUC(0-inf) (female, human, plasma, Group B2 Period 1: EE2/NET alone, read-out: NET AUC0-∞, Median): 47.4 ng·h/mL
Cmax (female, human, plasma, Group B2 Period 1: EE2/NET alone, read-out: NET Cmax, Geometric LSMeans): 8.36 ng/mL
Cmax (female, human, plasma, Group B2 Period 1: EE2/NET alone, read-out: NET Cmax, Mean): 9.63 ng/mL
Cmax (female, human, plasma, Group B2 Period 1: EE2/NET alone, read-out: NET Cmax, Median): 8.16 ng/mL
half-life (female, human, plasma, Group B2 Period 1: EE2/NET alone, read-out: NET t1/2, Mean (converted)): 10 h
half-life (female, human, plasma, Group B2 Period 1: EE2/NET alone, read-out: NET t1/2, Median (converted)): 9.29 h
AUC(0-t) (female, human, plasma, Group B2 Period 2: SYM-1219 2 grams on Day 1, EE2/NET on Day 2, read-out: NET AUC0-t, Geometric LSMeans): 51.9 ng·h/mL
AUC(0-t) (female, human, plasma, Group B2 Period 2: SYM-1219 2 grams on Day 1, EE2/NET on Day 2, read-out: NET AUC0-t, Mean): 61.2 ng·h/mL
AUC(0-t) (female, human, plasma, Group B2 Period 2: SYM-1219 2 grams on Day 1, EE2/NET on Day 2, read-out: NET AUC0-t, Median): 44.5 ng·h/mL
AUC(0-inf) (female, human, plasma, Group B2 Period 2: SYM-1219 2 grams on Day 1, EE2/NET on Day 2, read-out: NET AUC0-∞, Geometric LSMeans): 60 ng·h/mL
AUC(0-inf) (female, human, plasma, Group B2 Period 2: SYM-1219 2 grams on Day 1, EE2/NET on Day 2, read-out: NET AUC0-∞, Mean): 71.5 ng·h/mL
AUC(0-inf) (female, human, plasma, Group B2 Period 2: SYM-1219 2 grams on Day 1, EE2/NET on Day 2, read-out: NET AUC0-∞, Median): 51.6 ng·h/mL
Cmax (female, human, plasma, Group B2 Period 2: SYM-1219 2 grams on Day 1, EE2/NET on Day 2, read-out: NET Cmax, Geometric LSMeans): 9.74 ng/mL
Cmax (female, human, plasma, Group B2 Period 2: SYM-1219 2 grams on Day 1, EE2/NET on Day 2, read-out: NET Cmax, Mean): 10.7 ng/mL
Cmax (female, human, plasma, Group B2 Period 2: SYM-1219 2 grams on Day 1, EE2/NET on Day 2, read-out: NET Cmax, Median): 9.39 ng/mL
half-life (female, human, plasma, Group B2 Period 2: SYM-1219 2 grams on Day 1, EE2/NET on Day 2, read-out: NET t1/2, Mean (converted)): 9.51 h
half-life (female, human, plasma, Group B2 Period 2: SYM-1219 2 grams on Day 1, EE2/NET on Day 2, read-out: NET t1/2, Median (converted)): 9.19 h
